The subject of this experiment is GC. Briefly: Seahorse Mito Stress Test. The class given is cell-based, human. The note with it: forskolin 20 μM for 24 hours. As for the experimental part: FIG. 5A is a line graph showing the oxygen consumption rate from a Seahorse Mito Stress Test assay of GC compared to white adipocytes (WA). Cells were stimulated with forskolin (FSK, 20 uM) for 24 hours prior to treatment, and oligomycin (3 μM), FCCP (3 μM), and antimycin a/rotenone (5 μM) were added at indicated time points. n=9, where n is the number of independent replicates for each cell type/condition. Assay was normalized to total protein content. FIG. 5B is a line graph showing extracellular acidification rate from the assay in FIG. 5A. FIGS. 5C-5E are bar graphs showing basal respiration rate (5C) from the assay maximal respiration (5D) and proton leak (5E) calculated from assay performed in FIG. 5A. FIG. 5F is a bar graph showing the results of a lipolysis assay of ADSCs or GC (BA), treated with forskolin for indicated time period. FIG. 5G is a bar graph showing quantification of thermogenic dye assay of GC with or without forskolin treatment. […]
To perform the assay, ADSCs were plated on XFe24 plates (Agilent) at 5000 cell/cm^2 and grown to confluency. […] Following the assay, cells were lysed using RIPA buffer and protein concentration was determined by Bradford assay. Data was normalized by protein concentration and analyzed in Wave software (Agilent).

Molecules are shown by their SMILES.

`C=C[C@@]1(C)CC(=O)[C@]2(O)[C@@]3(C)[C@@H](O)CCC(C)(C)[C@@H]3[C@H](O)[C@H](OC(C)=O)[C@@]2(C)O1` [Forskolin]: the “Elevation of uncoupled respiration (proton leak) relative to basal conditions” value was 64.7%.

(Values after patent US20220079993A1, “NON-NATURALLY OCCURRING THERMOGENIC ADIPOCYTES, METHODS OF MAKING, AND METHODS OF USE THEREOF” (University of Georgia Research Foundation, Inc., priority 2019, published 2022).)
